The text below walks through data of PubChem BioAssay (NCI).

What all share (experiment): growth of human tumour cells (NCI), 48 h
The subject of assay [1] is NCI-H522 lung.
Assay [2] deals with HCC-2998 colon.
The subject of assay [3] is ACHN renal.
Assay [4] relates to BT-549 breast.
Assay [5] has as its system HCT-15 colon.
Assay [6] has as its system NCI/ADR-RES ovarian.
For assay [7], the system named is SK-MEL-28 melanoma.
The subject of assay [8] is T-47D breast.
In assay [9] the test system is COLO 205 colon.
Assay [10] concerns NCI-H460 lung.

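Cultured in 96-well plates, cells were exposed to test compound for 48 hours across five concentrations. GI50 = concentration required for 50% inhibition of growth. TGI: total growth inhibition.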

As to `Cc1cc(C)cc(Nc2nccc(-c3c(-c4ccc(F)cc4)ncn3C3CCNCC3)n2)c1`, the GI50 in [1] is 1.5 µM; in assay [2] it was 1.28 µM; in [3] it was 0.46 µM; in assay [4], 1.52 µM; in assay [5] it was 1.15 µM; in [6], 1.79 µM. The GI50 in assay [7] was 1.78 µM; in assay [8] it was 1.42 µM; in assay [9], 1.41 µM; in assay [10] it was 1.27 µM. For the same compound, the TGI in [1] came to 3.45 µM; in [2] it was 2.64 µM; in assay [3] it was 1.79 µM; in assay [4] it was 3.11 µM; in assay [5], 2.85 µM; in assay [6] it was 4.07 µM. The TGI is 3.26 µM in assay [7], 3.79 µM in assay [8], 3.21 µM in assay [9] and 2.77 µM in [10].

Consider `COc1cc(C(=O)/C=C/c2c(-c3ccc(F)cc3)nc3sccn23)cc(OC)c1OC`, for which the GI50 in assay [1] was 4.2 µM; in [2] it was 2.03 µM; in [3], 2.99 µM; in [4], 0.342 µM; in assay [5] it was 2.87 µM; in assay [6], 2.05 µM. The GI50 in assay [7] is 4.84 µM; in assay [8] it was 2.3 µM; in assay [9] it was 2.27 µM; in [10] it was 1.95 µM. Besides, the TGI is greater than 26.2 µM in assay [1]; 3.99 µM in [2]; 13.2 µM in assay [3]; 12.5 µM in assay [4]; 13.1 µM in [5]; 6.28 µM in [6]. Further, the TGI in assay [7] was 17.2 µM; in [8], 14.3 µM; in [9], 6.98 µM; in [10], 4.51 µM.

As for `CC(=O)OC1CCC2(C)C(CCC3C2CCC2(C)C(C4=CC(=O)OC4)CCC32)C1` (stereo not given), the GI50 was 1.53 µM in assay [1]; 23.8 µM in assay [2]; 12.3 µM in assay [3]; 4.19 µM in [4]; 16.2 µM in assay [5]; 8.37 µM in [6]. Further, the GI50 in [7] was 4.75 µM; in assay [8] it was 13.1 µM; in assay [9], 12.8 µM; in [10] it was 0.681 µM. Moreover, the TGI is 3.99 µM in [1]; greater than 100 µM in [2]; 38.9 µM in [3]; 25.4 µM in assay [4]; greater than 100 µM in assay [5]; 42.7 µM in [6]. The TGI in [7] is 22 µM; in assay [8], 45.5 µM; in [9], greater than 100 µM; in assay [10] it was 11 µM.
